These results are taken from ChEMBL document CHEMBL4017477, “Synthesis and evaluation of 4,6-disubstituted pyrimidines as CNS penetrant pan-muscarinic antagonists with a novel chemotype” (Bioorg Med Chem Lett, 2017).

The target of data set [1] is T1, Muscarinic acetylcholine receptor M5 (Homo sapiens, UniProt P08912).
T1 sequence (P08912 whole entry): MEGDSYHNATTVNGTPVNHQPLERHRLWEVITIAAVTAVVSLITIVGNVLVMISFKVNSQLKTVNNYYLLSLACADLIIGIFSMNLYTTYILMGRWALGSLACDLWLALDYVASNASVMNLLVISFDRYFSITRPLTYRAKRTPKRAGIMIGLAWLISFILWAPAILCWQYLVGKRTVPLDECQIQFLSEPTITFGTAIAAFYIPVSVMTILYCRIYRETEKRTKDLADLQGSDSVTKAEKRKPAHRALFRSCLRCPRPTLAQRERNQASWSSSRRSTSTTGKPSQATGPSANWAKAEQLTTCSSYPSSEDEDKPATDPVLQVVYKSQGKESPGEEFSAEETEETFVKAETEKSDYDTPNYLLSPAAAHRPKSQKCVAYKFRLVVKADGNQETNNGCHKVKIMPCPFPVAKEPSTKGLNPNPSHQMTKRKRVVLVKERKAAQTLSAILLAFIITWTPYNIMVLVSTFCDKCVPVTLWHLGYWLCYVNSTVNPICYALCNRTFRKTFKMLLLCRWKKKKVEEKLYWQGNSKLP
Briefly: Antagonist activity at recombinant human M5 receptor expressed in CHO cells co-expressing Gqi5 by calcium mobilization assay. The data set is classed as functional, cell-based. In general terms: A change in cytosolic calcium serves as a functional read-out for many receptors and channels.

The target of data set [2] is T2, Muscarinic acetylcholine receptor M4 (Homo sapiens, UniProt P08173).
T2 sequence (P08173 whole entry): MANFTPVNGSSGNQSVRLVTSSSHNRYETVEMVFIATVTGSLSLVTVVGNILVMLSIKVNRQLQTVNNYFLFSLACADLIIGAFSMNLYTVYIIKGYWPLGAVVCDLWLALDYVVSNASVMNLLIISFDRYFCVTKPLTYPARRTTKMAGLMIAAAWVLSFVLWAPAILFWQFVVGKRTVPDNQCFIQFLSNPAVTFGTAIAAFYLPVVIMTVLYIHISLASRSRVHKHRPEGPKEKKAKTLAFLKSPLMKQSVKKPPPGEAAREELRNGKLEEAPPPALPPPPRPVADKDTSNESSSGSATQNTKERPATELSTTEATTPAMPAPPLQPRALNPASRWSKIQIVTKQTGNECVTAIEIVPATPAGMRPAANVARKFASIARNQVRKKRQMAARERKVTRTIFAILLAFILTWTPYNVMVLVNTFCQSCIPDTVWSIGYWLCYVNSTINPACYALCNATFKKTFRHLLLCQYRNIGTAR
Nature of the data set: Antagonist activity at recombinant human M4 receptor expressed in CHO cells co-expressing Gqi5 by calcium mobilization assay. The format is functional, cell-based.

Data set [3] has as its target T3, Muscarinic acetylcholine receptor M4 (Homo sapiens) (UniProt P08173).
T3 sequence (whole entry): T2 sequence (P08173 whole entry)
Nature of the data set: Antagonist activity at recombinant human M4 receptor expressed in CHO cells co-expressing Gqi5 by calcium mobilization assay relative to acetylcholine. The format is functional, cell-based.

The target of data set [4] is T4, Muscarinic acetylcholine receptor M1 (Homo sapiens, UniProt P11229).
T4 sequence (P11229 whole entry): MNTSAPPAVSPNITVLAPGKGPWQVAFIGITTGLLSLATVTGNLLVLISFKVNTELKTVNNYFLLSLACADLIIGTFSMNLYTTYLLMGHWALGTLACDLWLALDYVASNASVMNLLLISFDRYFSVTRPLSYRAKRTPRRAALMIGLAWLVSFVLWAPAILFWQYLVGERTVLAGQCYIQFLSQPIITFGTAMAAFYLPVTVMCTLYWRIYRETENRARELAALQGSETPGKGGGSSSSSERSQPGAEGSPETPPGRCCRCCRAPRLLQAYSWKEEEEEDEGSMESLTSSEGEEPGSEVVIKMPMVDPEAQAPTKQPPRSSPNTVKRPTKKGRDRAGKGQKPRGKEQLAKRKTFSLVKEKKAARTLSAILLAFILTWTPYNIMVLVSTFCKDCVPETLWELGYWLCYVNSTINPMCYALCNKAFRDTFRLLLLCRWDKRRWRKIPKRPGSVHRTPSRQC
Briefly: Antagonist activity at recombinant human M1 receptor expressed in CHO cells co-expressing Gqi5 by calcium mobilization assay. The format is functional, cell-based.

In data set [5] the target is T5, Muscarinic acetylcholine receptor M2 (Homo sapiens, UniProt P08172).
T5 sequence (P08172 whole entry): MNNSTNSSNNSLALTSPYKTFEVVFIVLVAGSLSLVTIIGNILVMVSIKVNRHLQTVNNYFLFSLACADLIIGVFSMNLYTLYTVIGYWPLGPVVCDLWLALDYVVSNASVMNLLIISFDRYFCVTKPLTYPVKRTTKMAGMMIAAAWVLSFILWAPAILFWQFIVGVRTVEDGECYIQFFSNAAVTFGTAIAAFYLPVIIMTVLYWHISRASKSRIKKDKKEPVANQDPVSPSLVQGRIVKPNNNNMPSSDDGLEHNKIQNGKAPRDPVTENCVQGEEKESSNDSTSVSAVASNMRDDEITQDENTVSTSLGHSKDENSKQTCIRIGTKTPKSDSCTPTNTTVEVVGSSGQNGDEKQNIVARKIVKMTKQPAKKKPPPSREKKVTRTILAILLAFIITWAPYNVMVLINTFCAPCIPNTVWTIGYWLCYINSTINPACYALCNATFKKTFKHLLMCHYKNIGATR
Briefly: Antagonist activity at recombinant human M2 receptor expressed in CHO cells co-expressing Gqi5 by calcium mobilization assay. The data set is classed as functional, cell-based.

The target in data set [6] is T6, Muscarinic acetylcholine receptor M3 (Homo sapiens, UniProt P20309). Nature of the data set: Antagonist activity at recombinant human M3 receptor expressed in CHO cells co-expressing Gqi5 by calcium mobilization assay. The format is functional, cell-based.
Target sequence in this assay (P20309 whole entry): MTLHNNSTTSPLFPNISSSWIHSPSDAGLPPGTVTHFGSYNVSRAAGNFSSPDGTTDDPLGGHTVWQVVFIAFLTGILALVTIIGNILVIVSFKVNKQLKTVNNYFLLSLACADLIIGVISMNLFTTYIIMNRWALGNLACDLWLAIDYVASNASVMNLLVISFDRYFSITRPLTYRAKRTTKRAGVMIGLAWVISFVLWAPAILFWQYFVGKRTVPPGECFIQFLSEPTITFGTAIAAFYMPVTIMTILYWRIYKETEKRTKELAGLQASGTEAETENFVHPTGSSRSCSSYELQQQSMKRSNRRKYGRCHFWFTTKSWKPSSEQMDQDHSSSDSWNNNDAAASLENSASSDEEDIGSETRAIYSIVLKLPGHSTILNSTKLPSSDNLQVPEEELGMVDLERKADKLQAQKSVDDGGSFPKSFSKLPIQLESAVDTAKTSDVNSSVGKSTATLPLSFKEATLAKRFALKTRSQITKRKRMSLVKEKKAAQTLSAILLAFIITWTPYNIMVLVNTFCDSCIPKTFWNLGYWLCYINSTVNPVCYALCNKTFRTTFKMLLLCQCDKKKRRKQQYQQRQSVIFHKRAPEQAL
Data set [7] has as its target T2, Muscarinic acetylcholine receptor M4. Briefly: Displacement of [3H]-NMS from recombinant human M4 receptor expressed in CHO cell membranes. (In a radioligand displacement assay an active substance lowers the binding of a labelled ligand.)
The target of data set [8] is T7, Muscarinic acetylcholine receptor M1 (Homo sapiens) (UniProt P11229).
T7 sequence (whole entry): T4 sequence (P11229 whole entry)
Briefly: Antagonist activity at recombinant human M1 receptor expressed in CHO cells co-expressing Gqi5 by calcium mobilization assay relative to acetylcholine. The data set is classed as functional, cell-based.

In data set [9] the target is T8, Muscarinic acetylcholine receptor M2 (Homo sapiens) (UniProt P08172).
T8 sequence (whole entry): T5 sequence (P08172 whole entry)
Nature of the data set: Antagonist activity at recombinant human M2 receptor expressed in CHO cells co-expressing Gqi5 by calcium mobilization assay relative to acetylcholine. The format is functional, cell-based.

Data set [10] has as its target T6, Muscarinic acetylcholine receptor M3. Nature of the data set: Antagonist activity at recombinant human M3 receptor expressed in CHO cells co-expressing Gqi5 by calcium mobilization assay relative to acetylcholine. The format is functional, cell-based.
Target sequence in this assay (P20309 whole entry, looked up): as the sequence (P20309 whole entry) above
Data set [11] addresses T9, Muscarinic acetylcholine receptor M5 (Homo sapiens) (UniProt P08912).
T9 sequence (whole entry): T1 sequence (P08912 whole entry)
Nature of the data set: Antagonist activity at recombinant human M5 receptor expressed in CHO cells co-expressing Gqi5 by calcium mobilization assay relative to acetylcholine. The data set is classed as functional, cell-based.

A short description of data set [12]: Brain to plasma partition coefficient, Kp of the compound in rat. The format is ADME.
In data set [13] the target is T10, Muscarinic acetylcholine receptor M4 (Rattus norvegicus, UniProt P08485).
T10 sequence (P08485 whole entry): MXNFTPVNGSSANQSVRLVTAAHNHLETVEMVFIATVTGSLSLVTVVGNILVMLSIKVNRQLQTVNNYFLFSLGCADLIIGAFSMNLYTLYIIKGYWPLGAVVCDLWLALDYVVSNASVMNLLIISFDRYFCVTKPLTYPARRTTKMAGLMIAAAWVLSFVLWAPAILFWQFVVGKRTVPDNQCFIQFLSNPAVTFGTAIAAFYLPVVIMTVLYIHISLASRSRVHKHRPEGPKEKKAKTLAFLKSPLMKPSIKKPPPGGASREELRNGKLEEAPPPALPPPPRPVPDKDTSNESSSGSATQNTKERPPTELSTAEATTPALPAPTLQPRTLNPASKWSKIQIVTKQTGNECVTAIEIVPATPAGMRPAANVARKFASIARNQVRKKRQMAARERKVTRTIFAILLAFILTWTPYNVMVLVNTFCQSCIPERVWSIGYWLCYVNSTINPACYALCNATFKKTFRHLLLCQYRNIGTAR
Nature of the data set: Antagonist activity at rat M4 receptor by calcium mobilization assay. The format is functional.

The target in data set [14] is T11, Muscarinic acetylcholine receptor M4 (Rattus norvegicus) (UniProt P08485).
T11 sequence (whole entry): T10 sequence (P08485 whole entry)
Nature of the data set: Antagonist activity at rat M4 receptor by calcium mobilization assay relative to acetylcholine. The format is functional.

Data set [15] is described as follows: Ratio of unbound brain to plasma concentration in rat. The format is ADME. As to conditions: brain.
Data set [16] can be described thus: Clearance in rat at 0.2 mg/kg administered as iv cassette dose. The settings on record: in vivo.
Data set [17] is described as follows: Elimination half life in rat at 0.2 mg/kg administered as iv cassette dose. The settings on record: in vivo, read-out: beta t1/2 (converted).
Data set [18] can be described thus: Volume of distribution at steady state in rat at 0.2 mg/kg administered as iv cassette dose. As to conditions: in vivo, read-out: Vdss.

A value given as a limit tells only on which side of the number the result lay.

The Ki is a measure of affinity in units of concentration, obtained from inhibition or displacement. `O=C(C1CCN(c2cc(Oc3ccc(F)cc3F)ncn2)CC1)N1CCc2ccccc2C1`: the IC50 in [1] came to 0.51 µM; in [2] (read-out: IC50), 0.1 µM; in data set [4] it was 0.25 µM; in [5], 0.33 µM; in data set [6], 0.38 µM. For the same molecule, the Emin was 3% in [3]; < 6% in data set [8]; < 6% in data set [9]; < 6% in data set [10]; < 6% in data set [11]. For the same molecule, the Ki in data set [7] came to 0.0103 µM.
By Kp is commonly meant the ratio of the level in a tissue or fluid to that in plasma or blood. What is called clearance is a measure of how efficiently the substance is removed, as volume per time. With `O=C(C1CCN(c2cc(Oc3ccc(F)cc3F)ncn2)CC1)N1Cc2ccccc2C1`, the IC50 is 1.13 µM in data set [1]; 0.34 µM in [2] (read-out: IC50); 0.324 µM in data set [2] (read-out: pIC50 (converted)); 0.56 µM in [13] (read-out: IC50); 0.479 µM in [13] (read-out: pIC50 (converted)); 0.54 µM in data set [4]. Also, the values for the IC50 in data set [5] and in data set [6] were 0.52 µM and 0.66 µM, respectively. The same molecule registered a Kp in data set [12] of 0.67. Besides, the Emin in [3] was 18.4%; in [14], 42.7%; in data set [8] it was 18.2%; in data set [9], 8.7%; in data set [10] it was 2.3%; in data set [11] it was 42.6%. Also, the “K(p,uu,brain)” value in [15] was 0.87. The clearance in data set [16] was determined as 5.37 mL/min/kg. For the same molecule, the half-life in data set [17] was 3.7 h. Also, the Vd in data set [18] is 1.35 L/kg.
